Blank lines part the entries; values can stand above or below the compound they belong to. Active and inactive are the calls of the source. The calls are words filed in the database; no cut-off is given here.
Columns and labels:
[1] = target: T1, Histamine H4 receptor (Homo sapiens, UniProt Q9H3N8); conditions: HEK293
[2] = system: BMMC; assay: Blockade of histamine-induced morphological changes in BALB/c mouse BMMC by flow cytometry; format: functional, cell-based
[3] = target: Histamine H4 receptor (Rattus norvegicus) (UniProt Q91ZY1); assay: (§1) Antagonist activity at rat histamine H4 receptor expressed in HEK293 cells assessed as inhibition of histamine-induced intracellular calcium elevation by FLIPR assay; format: functional, cell-based
Histamine H4 receptor (Rattus norvegicus), sequence (Q91ZY1 whole entry): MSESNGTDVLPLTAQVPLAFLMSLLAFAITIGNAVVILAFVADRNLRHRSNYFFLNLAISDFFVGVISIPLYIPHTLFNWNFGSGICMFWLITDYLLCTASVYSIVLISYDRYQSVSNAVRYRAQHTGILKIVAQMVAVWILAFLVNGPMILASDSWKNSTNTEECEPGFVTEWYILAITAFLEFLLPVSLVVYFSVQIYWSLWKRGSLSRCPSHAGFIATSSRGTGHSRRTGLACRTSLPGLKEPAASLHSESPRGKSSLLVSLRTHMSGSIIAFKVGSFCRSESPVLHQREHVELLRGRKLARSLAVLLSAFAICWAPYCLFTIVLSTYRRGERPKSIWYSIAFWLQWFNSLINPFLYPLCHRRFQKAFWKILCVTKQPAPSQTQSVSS

[4] = target: Cytochrome P450 3A4 (Homo sapiens, UniProt P08684); assay: Inhibition of CYP3A4 upto 10 uM; format: ADME
Cytochrome P450 3A4, sequence (P08684 whole entry): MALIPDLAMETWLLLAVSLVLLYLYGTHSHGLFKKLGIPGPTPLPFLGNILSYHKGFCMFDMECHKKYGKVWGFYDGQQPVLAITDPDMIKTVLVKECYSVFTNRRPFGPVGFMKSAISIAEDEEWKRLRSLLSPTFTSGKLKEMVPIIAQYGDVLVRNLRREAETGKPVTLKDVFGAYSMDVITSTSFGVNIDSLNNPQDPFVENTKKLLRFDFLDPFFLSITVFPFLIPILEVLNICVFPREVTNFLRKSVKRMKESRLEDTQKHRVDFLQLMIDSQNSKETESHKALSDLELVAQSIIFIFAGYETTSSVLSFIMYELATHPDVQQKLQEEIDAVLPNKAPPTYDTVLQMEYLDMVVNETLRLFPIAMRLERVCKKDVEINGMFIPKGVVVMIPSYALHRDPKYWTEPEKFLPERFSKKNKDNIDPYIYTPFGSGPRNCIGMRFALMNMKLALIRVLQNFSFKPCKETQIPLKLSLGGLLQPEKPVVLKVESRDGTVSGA

[5] = system: Mus musculus; assay: Inhibition of clobenpropit-induced itching in ip dosed CD1/ICR mouse assessed as blockade of scratching in hind paw for 25 mins pretreated 30 mins before clobenpropit challenge; format: functional
[6] = Selectivity ratio of Ki for human histamine H4 receptor to Ki for 5HT2A receptor
[7] = Terminal volume of distribution in rat at 10 mg/kg, iv; format: ADME, organism-based; design: dose 10 mg/kg, route intravenous; conditions: in vivo, read-out: Vbeta
[8] = system: Mus musculus; assay: Antiinflammatory activity against ip dosed BALB/c mouse assessed as inhibition of zymosan-induced peritonitis after 2 hrs pretreated 30 mins before zymosan challenge; format: functional
[9] = target: T1, Histamine H4 receptor; assay: Displacement of [3H]histamine from human histamine H4 receptor expressed in HEK293 cells; format: cell-based
[10] = Selectivity ratio of Ki for human histamine H4 receptor to Ki for 5HT1A receptor
[11] = Half life in rat at 10 mg/kg, iv; format: ADME, organism-based; design: dose 10 mg/kg, route intravenous; conditions: in vivo
[12] = Selectivity ratio of Ki for human histamine H4 receptor to Ki for adrenergic alpha1 receptor
[13] = target: Cannabinoid receptor 1 (Homo sapiens) (UniProt P21554); assay: Binding affinity to CB1 receptor
Cannabinoid receptor 1 (Homo sapiens), sequence (P21554 whole entry): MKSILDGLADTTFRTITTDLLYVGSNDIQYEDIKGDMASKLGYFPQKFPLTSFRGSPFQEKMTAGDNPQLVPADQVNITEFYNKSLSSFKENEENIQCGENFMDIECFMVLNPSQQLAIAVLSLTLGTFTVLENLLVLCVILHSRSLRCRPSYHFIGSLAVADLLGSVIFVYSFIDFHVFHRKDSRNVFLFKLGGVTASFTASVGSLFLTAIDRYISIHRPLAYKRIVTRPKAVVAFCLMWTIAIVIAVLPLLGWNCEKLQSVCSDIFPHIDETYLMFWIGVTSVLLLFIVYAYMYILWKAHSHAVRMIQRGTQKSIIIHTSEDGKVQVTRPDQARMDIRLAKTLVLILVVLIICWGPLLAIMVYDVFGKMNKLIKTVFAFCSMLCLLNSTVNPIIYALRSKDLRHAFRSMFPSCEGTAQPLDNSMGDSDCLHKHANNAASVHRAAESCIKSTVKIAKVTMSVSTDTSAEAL

[14] = Metabolic stability in mouse liver microsomes; format: ADME, Microsome
[15] = target: T2, Prostaglandin G/H synthase 2 (Homo sapiens) (UniProt P35354); assay: Binding affinity at COX2
T2 sequence (whole entry): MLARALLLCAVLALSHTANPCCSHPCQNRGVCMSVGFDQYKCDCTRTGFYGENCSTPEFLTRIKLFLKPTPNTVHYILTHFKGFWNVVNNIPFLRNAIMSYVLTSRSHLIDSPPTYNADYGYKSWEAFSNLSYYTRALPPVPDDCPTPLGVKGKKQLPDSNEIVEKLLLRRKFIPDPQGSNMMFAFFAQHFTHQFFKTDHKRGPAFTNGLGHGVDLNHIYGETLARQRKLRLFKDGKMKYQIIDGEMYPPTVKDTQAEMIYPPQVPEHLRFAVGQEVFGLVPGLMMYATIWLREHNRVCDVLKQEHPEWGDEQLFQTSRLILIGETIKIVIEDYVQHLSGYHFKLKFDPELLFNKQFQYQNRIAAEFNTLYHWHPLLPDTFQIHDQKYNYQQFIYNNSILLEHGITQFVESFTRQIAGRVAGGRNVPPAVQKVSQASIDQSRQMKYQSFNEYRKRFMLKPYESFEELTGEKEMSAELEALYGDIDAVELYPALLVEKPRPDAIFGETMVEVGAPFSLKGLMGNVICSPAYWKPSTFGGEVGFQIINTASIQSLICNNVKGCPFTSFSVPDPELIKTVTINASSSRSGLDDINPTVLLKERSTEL

[16] = target: Cannabinoid receptor 2 (Homo sapiens) (UniProt P34972); assay: Binding affinity to CB2 receptor
Cannabinoid receptor 2 (Homo sapiens), sequence (P34972 whole entry): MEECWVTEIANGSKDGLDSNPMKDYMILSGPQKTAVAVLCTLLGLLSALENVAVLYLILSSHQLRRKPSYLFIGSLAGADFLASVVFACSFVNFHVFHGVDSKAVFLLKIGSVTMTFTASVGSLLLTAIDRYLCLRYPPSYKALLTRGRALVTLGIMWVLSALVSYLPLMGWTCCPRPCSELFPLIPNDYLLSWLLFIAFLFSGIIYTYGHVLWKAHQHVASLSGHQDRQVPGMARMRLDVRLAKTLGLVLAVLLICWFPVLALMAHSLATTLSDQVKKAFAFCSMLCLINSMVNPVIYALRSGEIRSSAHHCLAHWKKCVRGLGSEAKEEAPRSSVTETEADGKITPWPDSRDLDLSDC

[17] = Selectivity ratio of Ki for human histamine H4 receptor to Ki for histamine H2 receptor
[18] = target: T3, Histamine H4 receptor (Rattus norvegicus, UniProt Q91ZY1); assay: as §1; format: functional, cell-based
T3 sequence (Q91ZY1 whole entry): as the sequence (Q91ZY1 whole entry) above

[19] = species: Homo sapiens; assay: Selectivity ratio of Ki for human histamine H4 receptor to Ki for human histamine H3 receptor
[20] = Selectivity ratio of Ki for human histamine H4 receptor to Ki for dopamine D2 receptor
[21] = Protein binding in human; format: ADME, organism-based; conditions: in vivo, read-out: PB (converted)
[22] = system: Liver microsomes; assay: Metabolic stability in rat liver microsomes; format: ADME, Microsome
[23] = target: T3, Histamine H4 receptor; assay: Displacement of [3H]histamine from rat histamine H4 receptor expressed in HEK293 cells; format: cell-based
[24] = Blood clearance in rat at 10 mg/kg, iv; format: ADME, organism-based; design: dose 10 mg/kg, route intravenous; conditions: whole blood
[25] = target: Delta-type opioid receptor (Homo sapiens) (UniProt P41143); assay: Binding affinity to delta opioid receptor
Delta-type opioid receptor (Homo sapiens), sequence (P41143 whole entry): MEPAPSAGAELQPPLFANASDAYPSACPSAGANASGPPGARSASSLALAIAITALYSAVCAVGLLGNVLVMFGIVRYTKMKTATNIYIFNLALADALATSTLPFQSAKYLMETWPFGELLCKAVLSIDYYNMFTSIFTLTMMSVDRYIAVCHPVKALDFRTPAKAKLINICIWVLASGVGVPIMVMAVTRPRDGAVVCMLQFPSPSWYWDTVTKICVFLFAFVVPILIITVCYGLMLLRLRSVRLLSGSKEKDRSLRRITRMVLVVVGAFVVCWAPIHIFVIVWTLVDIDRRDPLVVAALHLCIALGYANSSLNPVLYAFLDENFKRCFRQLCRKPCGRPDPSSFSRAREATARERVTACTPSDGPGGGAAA

[26] = Protein binding in rat; format: ADME, organism-based; conditions: in vivo, read-out: PB (converted)
[27] = target: Cytochrome P450 2C9 (Homo sapiens, UniProt P11712); assay: Inhibition of CYP2C9 upto 10 uM; format: ADME
Cytochrome P450 2C9, sequence (P11712 whole entry): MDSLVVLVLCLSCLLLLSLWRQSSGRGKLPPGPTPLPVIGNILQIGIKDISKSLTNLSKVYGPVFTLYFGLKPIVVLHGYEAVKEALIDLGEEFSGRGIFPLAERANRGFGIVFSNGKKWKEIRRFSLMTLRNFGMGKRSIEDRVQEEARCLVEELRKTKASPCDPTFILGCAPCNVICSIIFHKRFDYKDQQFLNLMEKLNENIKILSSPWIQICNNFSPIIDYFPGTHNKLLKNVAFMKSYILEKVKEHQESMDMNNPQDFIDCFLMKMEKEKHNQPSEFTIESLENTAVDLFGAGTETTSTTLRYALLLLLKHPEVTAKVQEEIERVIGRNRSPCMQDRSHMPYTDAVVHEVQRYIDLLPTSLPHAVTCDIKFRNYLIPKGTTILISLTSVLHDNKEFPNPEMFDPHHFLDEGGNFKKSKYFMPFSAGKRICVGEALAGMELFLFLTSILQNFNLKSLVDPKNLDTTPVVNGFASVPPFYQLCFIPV

[28] = Selectivity ratio of Ki for human histamine H4 receptor to Ki for 5HT1D receptor
[29] = target: Kappa-type opioid receptor (Homo sapiens) (UniProt P41145); assay: Binding affinity to kappa opioid receptor
Kappa-type opioid receptor (Homo sapiens), sequence (P41145 whole entry): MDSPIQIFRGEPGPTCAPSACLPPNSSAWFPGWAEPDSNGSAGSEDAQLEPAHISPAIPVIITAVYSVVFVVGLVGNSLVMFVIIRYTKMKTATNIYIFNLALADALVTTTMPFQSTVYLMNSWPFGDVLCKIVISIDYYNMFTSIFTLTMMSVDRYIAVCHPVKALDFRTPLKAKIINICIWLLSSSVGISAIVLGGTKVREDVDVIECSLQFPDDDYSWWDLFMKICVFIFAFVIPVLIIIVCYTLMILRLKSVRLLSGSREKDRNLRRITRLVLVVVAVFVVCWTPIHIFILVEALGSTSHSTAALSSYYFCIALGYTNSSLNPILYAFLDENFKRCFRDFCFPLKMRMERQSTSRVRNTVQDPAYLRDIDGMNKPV

[30] = target: Prostaglandin G/H synthase 1 (Homo sapiens) (UniProt P23219); assay: Binding affinity at COX1
Prostaglandin G/H synthase 1 (Homo sapiens), sequence (P23219 whole entry): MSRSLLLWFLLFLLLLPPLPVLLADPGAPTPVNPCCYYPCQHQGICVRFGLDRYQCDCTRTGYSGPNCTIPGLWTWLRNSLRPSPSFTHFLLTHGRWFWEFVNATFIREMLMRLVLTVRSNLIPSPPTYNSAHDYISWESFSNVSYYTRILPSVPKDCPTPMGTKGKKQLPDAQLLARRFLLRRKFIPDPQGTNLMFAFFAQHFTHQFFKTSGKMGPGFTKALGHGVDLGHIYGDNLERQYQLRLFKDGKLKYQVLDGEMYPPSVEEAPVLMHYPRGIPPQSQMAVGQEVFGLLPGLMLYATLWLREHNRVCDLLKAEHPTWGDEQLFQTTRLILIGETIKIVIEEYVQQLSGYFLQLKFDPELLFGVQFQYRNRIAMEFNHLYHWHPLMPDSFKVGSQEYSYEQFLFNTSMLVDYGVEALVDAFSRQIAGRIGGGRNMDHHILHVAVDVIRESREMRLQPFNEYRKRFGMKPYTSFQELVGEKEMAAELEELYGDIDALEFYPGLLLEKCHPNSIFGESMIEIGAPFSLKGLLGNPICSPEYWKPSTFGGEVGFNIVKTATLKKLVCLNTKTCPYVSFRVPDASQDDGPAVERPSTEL

[31] = target: T4, Histamine H4 receptor (Mus musculus, UniProt Q91ZY2); assay: Antagonist activity at mouse histamine H4 receptor expressed in HEK293 cells assessed as inhibition of histamine-induced intracellular calcium elevation by FLIPR assay; format: functional, cell-based
T4 sequence (Q91ZY2 whole entry): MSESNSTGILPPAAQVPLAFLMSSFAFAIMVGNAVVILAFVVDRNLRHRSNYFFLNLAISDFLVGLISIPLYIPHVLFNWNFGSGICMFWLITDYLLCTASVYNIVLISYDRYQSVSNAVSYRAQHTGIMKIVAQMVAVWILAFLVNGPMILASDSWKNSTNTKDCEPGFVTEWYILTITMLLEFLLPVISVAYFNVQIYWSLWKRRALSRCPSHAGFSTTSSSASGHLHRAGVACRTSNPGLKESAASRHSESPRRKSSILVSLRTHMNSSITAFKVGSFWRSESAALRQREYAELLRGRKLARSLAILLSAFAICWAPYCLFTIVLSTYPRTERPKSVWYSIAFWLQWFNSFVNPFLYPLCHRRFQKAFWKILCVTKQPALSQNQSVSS

[32] = Selectivity ratio of Ki for human histamine H4 receptor to Ki for histamine H1 receptor
[33] = target: Cytochrome P450 2D6 (Homo sapiens, UniProt P10635); assay: Inhibition of CYP2D6 upto 10 uM; format: ADME
Cytochrome P450 2D6, sequence (P10635 whole entry): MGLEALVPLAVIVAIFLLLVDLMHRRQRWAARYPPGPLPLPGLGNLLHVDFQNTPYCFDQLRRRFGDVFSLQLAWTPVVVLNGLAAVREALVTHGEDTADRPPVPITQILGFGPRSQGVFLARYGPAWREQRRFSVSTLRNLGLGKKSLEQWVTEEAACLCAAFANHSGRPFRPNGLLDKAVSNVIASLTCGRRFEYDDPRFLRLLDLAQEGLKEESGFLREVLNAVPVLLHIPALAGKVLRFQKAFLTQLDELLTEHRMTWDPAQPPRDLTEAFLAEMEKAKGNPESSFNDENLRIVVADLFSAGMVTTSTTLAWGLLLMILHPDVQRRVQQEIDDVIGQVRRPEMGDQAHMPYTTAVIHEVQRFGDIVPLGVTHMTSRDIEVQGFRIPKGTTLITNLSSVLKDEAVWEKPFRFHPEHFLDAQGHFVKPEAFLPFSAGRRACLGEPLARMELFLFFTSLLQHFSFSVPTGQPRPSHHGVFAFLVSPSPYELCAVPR

[34] = target: Mu-type opioid receptor (Homo sapiens) (UniProt P35372); assay: Binding affinity to mu opioid receptor
Mu-type opioid receptor (Homo sapiens), sequence (P35372 whole entry): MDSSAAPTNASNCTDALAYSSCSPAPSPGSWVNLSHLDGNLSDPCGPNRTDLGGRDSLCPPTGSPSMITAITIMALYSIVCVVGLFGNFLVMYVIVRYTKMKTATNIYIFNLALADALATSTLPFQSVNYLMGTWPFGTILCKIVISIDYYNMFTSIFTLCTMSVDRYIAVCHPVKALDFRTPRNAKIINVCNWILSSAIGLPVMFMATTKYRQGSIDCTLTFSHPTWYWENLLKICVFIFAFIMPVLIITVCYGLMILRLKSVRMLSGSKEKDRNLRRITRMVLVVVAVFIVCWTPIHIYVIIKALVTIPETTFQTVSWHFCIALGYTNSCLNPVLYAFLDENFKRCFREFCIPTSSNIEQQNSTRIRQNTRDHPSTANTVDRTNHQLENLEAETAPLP

[35] = system: Liver microsomes; assay: Metabolic stability in human liver microsomes; format: ADME, Microsome
[36] = Fractional bioavailability in rat at 10 mg/kg, iv and 10 mg/kg, po; format: ADME, organism-based; conditions: in vivo
[37] = target: Histamine H4 receptor (Rattus norvegicus) (UniProt Q91ZY1); assay: Antagonist activity at rat histamine H4 receptor expressed in HEK293 cells assessed as inhibition of histamine-induced intracellular calcium elevation by FLIPR assay relative to histamine; format: functional, cell-based
[38] = target: Histamine H4 receptor (Mus musculus) (UniProt Q91ZY2); assay: Antagonist activity at mouse histamine H4 receptor expressed in HEK293 cells assessed as inhibition of histamine-induced intracellular calcium elevation by FLIPR assay relative to histamine; format: functional, cell-based

Structure (SMILES): Nc1nc2c(c(N3CCNCC3)n1)CCCc1ccc(F)cc1-2
Activity [4]: Not Active
ED50 [5]: 10 µmol/kg
pKb [1]: 8.01
Ratio Ki [6]: 765
Vd [7]: 18.2 L/kg
ED50 [8]: 134 µmol/kg
Ki ([9]; read-out: Ki): 5.1 nM
Ratio Ki [10]: 3070
half-life [11]: 3.5 h
Ratio Ki [12]: 1220
Activity [2]: Active
Activity [13]: inactive
Stability [14]: 32.4 pmol/min/mg
Activity [15]: inactive
Activity [16]: inactive
Ratio Ki [17]: > 1820
EC50 [18]: 6.03 nM
Ratio Ki [19]: 470
Ratio Ki [20]: > 2000
fraction unbound [21]: 0.39
Stability [22]: 200 pmol/min/mg
Ki [23]: 1.45 nM
clearance [24]: 60 mL/min/kg
Activity [25]: inactive
fraction unbound [26]: 0.34
Activity [27]: Not Active
Ratio Ki [28]: 850
Activity [29]: inactive
Activity [30]: inactive
EC50 [31]: 4.79 nM
Ratio Ki [32]: > 1290
Activity [33]: Not Active
Activity [34]: inactive
Stability [35]: 27.3 pmol/min/mg
bioavailability [36]: 18%

Structure (SMILES): CN1CCN(c2cc(-c3ccccc3)nc(N)n2)CC1
Activity [4]: Not Active
pKb [1]: 8.39
Ki ([9]; read-out: pKi (converted)): 5.01 nM
Stability [14]: 119 pmol/min/mg
fraction unbound [21]: 0.51
Stability [22]: 168 pmol/min/mg
Ki [23]: 14.1 nM
fraction unbound [26]: 0.35
Activity [27]: Not Active
Efficacy [37]: 79%
Activity [33]: Not Active
Stability [35]: 22 pmol/min/mg

Structure (SMILES): N#Cc1ccc(-c2cc(N3CCNCC3)nc(N)n2)cc1
Activity [4]: Not Active
pKb [1]: 8.08
Stability [14]: 23.2 pmol/min/mg
fraction unbound [21]: 0.93
Stability [22]: 26.9 pmol/min/mg
Efficacy [38]: 54%
fraction unbound [26]: 0.96
Activity [27]: Not Active
Activity [33]: Not Active
Stability [35]: 6.2 pmol/min/mg

Structure (SMILES): CN1CCN(c2nc(N)nc3c2CCc2ccccc2-3)CC1
Activity [4]: Not Active
pKb [1]: 8.08
Ki ([9]; read-out: pKi (converted)): 15.5 nM
Stability [14]: 195 pmol/min/mg
EC50 [18]: 15.5 nM
fraction unbound [21]: 0.22
Stability [22]: 192 pmol/min/mg
Ki [23]: 5.37 nM
fraction unbound [26]: 0.3
Activity [27]: Not Active
Efficacy [37]: 76%
Activity [33]: Not Active
Stability [35]: 102 pmol/min/mg

Continued, in another order:

pKb [1]: 8.15
pKb [3]: 7.5
Structure (SMILES): CN[C@@H]1CCN(c2nc(N)nc3c2CCCCc2ccccc2-3)C1
Activity [2]: inactive

pKb [1]: 8.5
EC50 [18]: 19.1 nM
Structure (SMILES): CN[C@@H]1CCN(c2nc(N)nc3c2Cc2ccccc2-3)C1

From ChEMBL document CHEMBL1140165, “Rotationally constrained 2,4-diamino-5,6-disubstituted pyrimidines: a new class of histamine H4 receptor antagonists with improved druglikeness and in vivo efficacy in pain and inflammation models” (J Med Chem, 2008)
